# Columns and labels:
# Rhopalosiphum padi [1] = experiment: 4-way olfactometer, direct response to chemical odour; format: in vivo; details: R. padi; visits to treatment arm vs control arms
# Protocol: (§1) Responses of R. padi migrants to chemical odours were tested in a 4-way olfactometer (Pettersson, 1970), consisting of an enclosed Perspex arena (12 cm diameter) with a central chamber and four side arms. Air was drawn from the centre of the olfactometer using a water pump, establishing distinct airflow in the side arms. An odour field was established by introducing a chemical (released from a […] capillary tube, or a whole menthol crystal, weight: 0.14 g) into one of the side arms. A single adult apterous aphid was introduced into the olfactometer, and its position was recorded every 3 minutes for 30 minutes. The number of visits to the treatment arm was compared with the mean number of visits to the control arms using a paired t-test. Experiments were repeated 16-20 times (no. individual aphids tested), with the olfactometer turned through 90° between replicates to avoid positional bias. Olfactory responses to plants exposed to chemicals were done in a similar way, except that the odour sources consisted of whole plants enclosed in two-chamber cages attached directly to the olfactometer. In each olfactometer, one treated plant was compared with one untreated plant.
# Rhopalosiphum padi [2] = experiment: Olfactometer response to odour of barley plants exposed to chemicals; format: in vivo; details: treated plant vs untreated plant
# Excerpt: Exposure of barley plants to volatile chemicals was done in perspex ‘two-chamber cages’ (Pettersson et al. 1999) attached to a vacuum tank. Air was taken into the first chamber through a hole in the cage wall, passed into the second chamber and was then drawn out from the top of this cage to a vacuum tank before being vented outside the room. Plants were placed in the second chamber, and chemicals were released from microcapillary tubing which hung in the first chamber. Plants were exposed for 5 days, after which time they were removed and used in tests of aphid behaviour. Control plants grew in identical cages with empty microcapillary tubes. Responses of R. padi migrants to chemical odours were tested in a 4-way olfactometer (Pettersson, 1970), consisting of an enclosed Perspex arena (12 cm diameter) with a central chamber and four side arms. Air was drawn from the centre of the olfactometer using a water pump, establishing distinct airflow in the side arms. An odour field was established by introducing a chemical (released from a […] capillary tube, or a whole menthol crystal, weight: 0.14 g) into one of the side arms. A single adult apterous aphid was introduced into the olfactometer, and its position was recorded every 3 minutes for 30 minutes. The number of visits to the treatment arm was compared with the mean number of visits to the control arms using a paired t-test. […]
# aphids [3] = experiment: Test of aphid settling on exposed barley plants; format: in vivo; details: barley exposed for 3, 4 and 6 days; FIG. 3
# Excerpt: Exposure of barley plants to volatile chemicals was done in perspex ‘two-chamber cages’ (Pettersson et al. 1999) attached to a vacuum tank. Air was taken into the first chamber through a hole in the cage wall, passed into the second chamber and was then drawn out from the top of this cage to a vacuum tank before being vented outside the room. Plants were placed in the second chamber, and chemicals were released from microcapillary tubing which hung in the first chamber. […] Control plants grew in identical cages with empty microcapillary tubes. A 50 ml polystyrene tube was placed over the youngest fully developed leaf. The upper end of the tube was covered with a net and the lower end with a foam plastic plug with a slit for the leaf. To minimise mechanical damage to the test plant, a stick was used to support the tube. Ten mixed-instar apterous aphids were placed in the tube and after 2 hours the number of aphids settled (not walking) on the leaf was recorded. Occasionally aphids were able to escape from the tubes, but the results were expressed as a proportion of the number of aphids originally introduced, in case the propensity of an aphid to escape from the tube was influenced by the experimental treatment of the plant. The number of replicates (tubes) varied between experiments, but there were always equal numbers of control and treatment plants. […]
# Aphis fabae = experiment: 4-way olfactometer, direct response to chemical odour; format: in vivo; details: FIG. 1
# Cavariella aegopodi = experiment: as above; format: in vivo; details: FIG. 1
# several aphid species = experiment: Repellency to aphids (conclusions); format: in vivo; details: conclusion statement
# Protocol: as §1
# [4] = orally in rabbits; cited from earlier work
# [5] = human adults; cited from earlier work
# aphids [6] = details: applied by spraying in cereal plots, pilot experiment; cited from earlier work
# [7] = cited from earlier work
Compound,response to chemical odour in the olfactometer (Rhopalosiphum padi [1]),response to odour of plants exposed to the chemical (Rhopalosiphum padi [2]),aphid settling on plants exposed to the substance (aphids [3]),response to chemical odour in the olfactometer (Aphis fabae),response to chemical odour in the olfactometer (Cavariella aegopodi),repellency for several aphid species (several aphid species),LD50 [4],average lethal dose [5],aphid settling in the field (aphids [6]),solubility in water [7]
"CC12CCC(CC1)C(C)(C)O2 [1,8-cineole, 1,3,3-trimethyl-2-oxabicyclo[2.2.2.]octane]",did not respond,less attractive,settled significantly less,–,–,–,–,–,–,–
"CC1CCC(C(C)C)C(O)C1 (stereo not shown) [menthol, 5-methyl-2-(1-methylethyl)-cyclohexanol]",strongly repelled,repelled,–,strongly repelled,strongly repelled,strong repellents,–,–,–,–
"COC(=O)c1ccccc1O [methyl salicylate, 2-hydroxybenzoic acid methyl ester]",–,–,–,–,–,strong repellents,2800 mg/kg,30 mL,significantly reduced aphid settling,slightly soluble
